# Target: T1, PTP-1B (Homo sapiens, UniProt P18031)
# T1 construct: PTP-1B (purified, 1 mg/mL) as a 1:250 dilution
# T1 sequence (P18031 1-321 limits assumed): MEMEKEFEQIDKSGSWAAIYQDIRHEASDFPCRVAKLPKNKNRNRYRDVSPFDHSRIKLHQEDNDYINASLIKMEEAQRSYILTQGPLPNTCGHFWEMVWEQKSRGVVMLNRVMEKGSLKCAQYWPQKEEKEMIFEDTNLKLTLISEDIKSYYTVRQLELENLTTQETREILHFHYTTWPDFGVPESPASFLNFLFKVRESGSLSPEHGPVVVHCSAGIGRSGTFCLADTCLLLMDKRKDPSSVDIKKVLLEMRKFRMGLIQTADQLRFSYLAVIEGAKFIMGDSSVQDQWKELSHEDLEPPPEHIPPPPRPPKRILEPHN
# Experiment: pNPP tyrosine phosphatase inhibition assay, PTP-1B
# Format: biochemical
# Details: pNPP assay, PTP-1B; read-out: Activity Class (IC50 ranges)
# Protocol: The compounds provided herein are evaluated for biological activity as inhibitors of PTP-1B using, for example, a pNPP assay can be used to screen compounds for tyrosine phosphatase inhibitory activity as described in the Examples.
# A 5× stock of pNPP (p-nitrophenol phosphate) substrate is prepared as 50 mM pNPP in assay buffer. Various tyrosine phosphatase solutions can be prepared as follows: • PTP-1B (purified, 1 mg/mL) as a 1:250 dilution (to a final concentration of 4:g/mL); • TC-PTP (NEB, 1000 units in 100:L) as a 1:50 dilution (to a final concentration of 2U/10:L (4:g/mL)); • CD45 (Calbiochem, 20:g, 400 units in 100:L) as a 1:50 dilution (to a final concentration of 0.8U/10:L (4:g/mL)); • LAR (NEB, 1000 units in 200:L) as a 1:75 dilution (to a final concentration of 0.7U/10:L (4:g/mL)); and • PTP-β (UBI, #14-350, 10,000 units, 40:g/571:L) as a 1:17.5 dilution (to a final concentration of 10U/10:L (4:g/mL));
# The compound to be tested is prepared as 1:16.7 and 1:50 dilutions from stock in a total volume of […] DMSO to give final concentrations of 626 and 200:M. The reaction mixtures are prepared in a 96-well microtiter plate (on ice) as 55:L assay buffer, 5:L of the diluted compound (to a final concentration of 31.3 and 10:M), 20:L of the pNPP substrate solution (to a final concentration of 10 mM) and 20:L PTPase in assay buffer. The reactants are mixed well, the plate placed in a water bath at 30° C. and incubated for 10 minutes. The reaction is then terminated by adding 100:L of 2M K2CO3 per well, and the absorbance is measured at 405 nm by conventional means.
# Unless otherwise indicated, this assay was used to determine activity for the selected compounds whose activity is provided in Table 1.
row,IC50,SMILES
1,250 to 499 nM,"O=P(O)(O)C(F)(F)c1ccc(CN(Cc2ccc(Cl)c(Cl)c2)S(=O)(=O)c2ccccc2)cc1Br [Compound 68, [(4-{[Benzenesulfonyl-(3,4-dichloro-benzyl)-amino]-methyl}-2-bromo-phenyl)-difluoro-methyl]-phosphonic acid]"
2,250 to 499 nM,"O=P(O)(O)C(F)(F)c1ccc(CN(Cc2ccc(C(F)(F)P(=O)(O)O)cc2)S(=O)(=O)c2ccc(Oc3ccccc3)cc2)cc1 [Compound 70, [(4-{[[4-(Difluoro-phosphono-methyl)-benzyl]-(4-phenoxy-benzenesulfonyl)-amino]-methyl}-phenyl)-difluoro-methyl]-phosphonic acid]"
3,250 to 499 nM,"O=P(O)(O)C(F)(F)c1ccc(CN(Cc2ccc(C(F)(F)P(=O)(O)O)cc2)S(=O)(=O)c2ccc3ccccc3c2)cc1 [Compound 71, [(4-{[[4-(Difluoro-phosphono-methyl)-benzyl]-(naphthalene-2-sulfonyl)-amino]-methyl}-phenyl)-difluoro-methyl]-phosphonic acid]"
4,250 to 499 nM,"O=P(O)(O)C(F)(F)c1ccc(CN(Cc2ccc(C(F)(F)P(=O)(O)O)cc2)S(=O)(=O)c2cccc(Oc3ccccc3)c2)cc1 [Compound 72, [(4-{[[4-(Difluoro-phosphono-methyl)-benzyl]-(3-phenoxy-benzenesulfonyl)-amino]-methyl}-phenyl)-difluoro-methyl]-phosphonic acid]"
5,250 to 499 nM,"O=P(O)(O)C(F)(F)c1ccc(CN(Cc2ccc(C(F)(F)P(=O)(O)O)cc2)S(=O)(=O)c2ccc(Cl)cc2)cc1 [Compound 73, {[4-({(4-Chloro-benzenesulfonyl)-[4-(difluoro-phosphono-methyl)-benzyl]-amino}-methyl)-phenyl]-difluoro-methyl}-phosphonic acid]"
6,250 to 499 nM,"O=P(O)(O)C(F)(F)c1ccc(CN(Cc2ccc(C(F)(F)P(=O)(O)O)cc2)S(=O)(=O)c2cccc(-c3ccccc3)c2)cc1 [Compound 74, {[4-({(Biphenyl-3-sulfonyl)-[4-(difluoro-phosphono-methyl)-benzyl]-amino}-methyl)-phenyl]-difluoro-methyl}-phosphonic acid]"
7,250 to 499 nM,"O=P(O)(O)C(F)(F)c1ccc(CN(Cc2ccc(C(F)(F)P(=O)(O)O)cc2)S(=O)(=O)C=Cc2ccccc2)cc1 [Compound 75, [(4-{[[4-(Difluoro-phosphono-methyl)-benzyl]-(2-phenyl-ethenesulfonyl)-amino]-methyl}-phenyl)-difluoro-methyl]-phosphonic acid]"
8,250 to 499 nM,"O=P(O)(O)C(F)(F)c1ccc(CN(Cc2ccc(C(F)(F)P(=O)(O)O)cc2)S(=O)(=O)c2cccc(Cl)c2)cc1 [Compound 76, {[4-({(3-Chloro-benzenesulfonyl)-[4-(difluoro-phosphono-methyl)-benzyl]-amino}-methyl)-phenyl]-difluoro-methyl}-phosphonic acid]"
9,250 to 499 nM,"O=P(O)(O)C(F)(F)c1ccc(CN(Cc2ccc(C(F)(F)P(=O)(O)O)cc2)S(=O)(=O)c2ccc(Cl)c(Cl)c2)cc1 [Compound 77, {[4-({(3,4-Dichloro-benzenesulfonyl)-[4-(difluoro-phosphono-methyl)-benzyl]-amino}-methyl)-phenyl]-difluoro-methyl}-phosphonic acid]"
10,> 25000 nM,"O=C(O)c1ccc(CN(Cc2ccc(C(=O)O)cc2)S(=O)(=O)c2ccccc2)cc1 [Compound 78, 4-([Benzenesulfonyl-(4-carboxybenzyl)-amino]-methyl)-benzoic acid]"
11,> 25000 nM,"O=C(O)c1ccc(CN(Cc2ccc(C(=O)O)c(Br)c2)S(=O)(=O)c2ccccc2)cc1 [Compound 79, 2-bromo-4-([Benzenesulfonyl-(4-carboxybenzyl)-amino]-methyl)-benzoic acid]"
12,> 25000 nM,"O=C(O)c1ccc(CN(Cc2ccc(C(=O)O)cc2Br)S(=O)(=O)c2ccccc2)cc1 [Compound 80, 4-([Benzenesulfonyl-(2-bromo-4-carboxybenzyl)-amino]-methyl)-benzoic acid]"
13,> 25000 nM,"O=[N+]([O-])c1ccc(CN(Cc2ccc(Cl)c(Cl)c2)S(=O)(=O)c2ccccc2Cl)cc1 [Compound 81, 2-Chloro-N-(3,4-dichloro-benzyl)-N-(4-nitro-benzyl)-benzenesulfonamide]"
14,100 to 249 nM,O=P(O)(O)C(F)(F)c1ccc(CN(Cc2ccc(Cl)c(Cl)c2)S(=O)(=O)c2ccccc2Cl)cc1Br [Compound 82]
15,250 to 499 nM,"O=P(O)(O)C(F)(F)c1ccc(CN(Cc2ccc(C(F)(F)P(=O)(O)O)cc2)S(=O)(=O)c2ccccc2F)cc1 [Compound 83, [(4-{[[4-(Difluoro-phosphono-methyl)-benzyl]-(2-fluoro-benzenesulfonyl)-amino]-methyl}-phenyl)-difluoro-methyl]-phosphonic acid]"
16,250 to 499 nM,"O=P(O)(O)C(F)(F)c1ccc(CN(Cc2ccc(C(F)(F)P(=O)(O)O)cc2)S(=O)(=O)c2ccccc2Br)cc1 [Compound 84, {[4-({(2-Bromo-benzenesulfonyl)-[4-(difluoro-phosphono-methyl)-benzyl]-amino}-methyl)-phenyl]-difluoro-methyl}-phosphonic acid]"
17,250 to 499 nM,"COc1ccccc1S(=O)(=O)N(Cc1ccc(C(F)(F)P(=O)(O)O)cc1)Cc1ccc(C(F)(F)P(=O)(O)O)cc1 [Compound 85, [(4-{[[4-(Difluoro-phosphono-methyl)-benzyl]-(2-methoxy-benzenesulfonyl)-amino]-methyl}-phenyl)-difluoro-methyl]-phosphonic acid]"
18,250 to 499 nM,"COc1cccc(S(=O)(=O)N(Cc2ccc(C(F)(F)P(=O)(O)O)cc2)Cc2ccc(C(F)(F)P(=O)(O)O)cc2)c1 [Compound 86, [(4-{[[4-(Difluoro-phosphono-methyl)-benzyl]-(3-methoxy-benzenesulfonyl)-amino]-methyl}-phenyl)-difluoro-methyl]-phosphonic acid]"
19,> 25000 nM,"O=S(=O)(c1ccccc1Cl)N(Cc1ccc(NS(=O)(=O)C(F)(F)F)cc1)Cc1ccc(Cl)c(Cl)c1 [Compound 87, 2-Chloro-N-(3,4-dichloro-benzyl)-N-(4-trifluoromethanesulfonylamino-benzyl)-benzenesulfonamide]"
20,> 25000 nM,"CCNc1ccc(S(=O)(=O)C(F)(F)F)cc1NC(=O)C1CCN(S(=O)(=O)c2cccs2)CC1 [Compound 88, 1-(Thiophene-2-sulfonyl)-piperidine-4-carboxylic acid (2-ethylamino-5-trifluoromethanesulfonyl-phenyl)-amide]"
21,250 to 499 nM,"COc1ccc(S(=O)(=O)N(Cc2ccc(C(F)(F)P(=O)(O)O)cc2)Cc2ccc(C(F)(F)P(=O)(O)O)cc2)cc1 [Compound 89, [(4-{[[4-(Difluoro-phosphono-methyl)-benzyl]-(4-methoxy-benzenesulfonyl)-amino]-methyl}-phenyl)-difluoro-methyl]-phosphonic acid]"
22,250 to 499 nM,"O=P(O)(O)C(F)(F)c1ccc(CN(Cc2ccc(C(F)(F)P(=O)(O)O)cc2)S(=O)(=O)c2ccccc2C(F)(F)F)cc1 [Compound 90, [(4-{[[4-(Difluoro-phosphono-methyl)-benzyl]-(2-trifluoromethyl-benzenesulfonyl)-amino]-methyl}-phenyl)-difluoro-methyl]-phosphonic acid]"

row,SMILES,IC50
1,"O=P(O)(O)C(F)(F)c1ccc(CN(Cc2ccc(C(F)(F)P(=O)(O)O)cc2)S(=O)(=O)Cc2ccccc2)cc1 [Compound 69, {[4-({[4-(Difluoro-phosphono-methyl)-benzyl]-phenylmethanesulfonyl-amino}-methyl)-phenyl]-difluoro-methy}-phosphonic acid]",2500 to 25000 nM
